Calls of active or inactive are those of the source.
Experiments:
Beta Lactamase = Beta Lactamase (Pseudomonas aeruginosa, UniProt Q932Y6); assay: beta-lactamase reporter inhibitor potency, dose response, artefact control for TLR9-MyD88 binding inhibitor project, BLA reporter cells, FRET fluorescence (AID 588341); type: cell-based;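 also: cell based assay in CHO-K1 cells stably expressing beta-lactamase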
[1] = tested on: Streptococcus sp. 'group A'; assay: growth inhibition of control SK(-) GAS strain, dose response, counter-screen for streptokinase expression inhibitor project, luminescence, kanamycin, BacTiterGlo, confirmation (AID 1900); type: functional, organism-based
[2] = HEp-2 cell cytotoxicity, dose response, cytotoxicity control for RSV inhibitor project, HTS (AID 2410); type: functional; conditions: human respiratory syncytial virus
CHO = assay: cytotoxicity in TLR9-MyD88 CHO cells, dose response, cytotoxicity control for TLR9-MyD88 binding inhibitor project, cell-based, luminescence (AID 588339); type: functional, hamster; conditions: Cricetulus griseus;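 also: CHO cells stably coexpressing TLR9 and MyD88 fusions from primary screen; compound exposure lasted 48 hours before viability readout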
Streptococcus = assay: Group A Streptococcus viability loss, dose response, counter-screen for streptokinase expression inhibitor project, luminescence, BacTiterGlo (AID 1915); type: functional, organism-based;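 also: potency for reduction of bacterial viability or growth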
cells = type: functional
[3] = THP-1 cell cytotoxicity, dose response, cytotoxicity control for non-replicating M. tuberculosis project (AID 489025); type: functional
[4] = Counterscreen for AddAB inhibitors: absorbance-based bacterial cell-based high throughput dose response assay for inhibitors of bacterial viability. [Related pubchem assays (depositor defined):AID435030, AID449728, AID449731, AID488942, AID488955, AID488956]; type: functional
[5] = inhibitors of intracellular T. cruzi replication, confirmation, NIH3T3 host cells, beta-gal luminescence (AID 2044); type: functional, cell-based;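 also: intracellular parasites grown in NIH/3T3 mouse fibroblasts as host cells; luminescent beta-galactosidase reporter signal from transgenic T. cruzi replicating inside host cells; inhibitors lower the luminescence signal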
[6] = Vero E6 cell cytotoxicity, dose response, cytotoxicity control for non-replicating M. tuberculosis project, secondary assay (AID 492998); type: functional, VeroE6; conditions: Vero C1008
[7] = cytotoxicity toward NIH3T3 fibroblasts, dose response, counter-screen, cell-based, ATP luminescence, mouse fibroblasts (AID 2010); type: functional;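 also: cells exposed to compound for about 90 hours before reading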
Exodeoxyribonuclease V = target: T1, Exodeoxyribonuclease V (Escherichia coli (strain K12), UniProt P04993+P07648+P08394); assay: E. coli RecBCD inhibitors, dose response, counter-screen for AddAB inhibitor project, absorbance, V66 E. coli, mutant T4 phage (AID 492957); type: functional, cell-based, Escherichia coli str. K-12 substr. MG1655
T1 sequence (P04993 whole entry): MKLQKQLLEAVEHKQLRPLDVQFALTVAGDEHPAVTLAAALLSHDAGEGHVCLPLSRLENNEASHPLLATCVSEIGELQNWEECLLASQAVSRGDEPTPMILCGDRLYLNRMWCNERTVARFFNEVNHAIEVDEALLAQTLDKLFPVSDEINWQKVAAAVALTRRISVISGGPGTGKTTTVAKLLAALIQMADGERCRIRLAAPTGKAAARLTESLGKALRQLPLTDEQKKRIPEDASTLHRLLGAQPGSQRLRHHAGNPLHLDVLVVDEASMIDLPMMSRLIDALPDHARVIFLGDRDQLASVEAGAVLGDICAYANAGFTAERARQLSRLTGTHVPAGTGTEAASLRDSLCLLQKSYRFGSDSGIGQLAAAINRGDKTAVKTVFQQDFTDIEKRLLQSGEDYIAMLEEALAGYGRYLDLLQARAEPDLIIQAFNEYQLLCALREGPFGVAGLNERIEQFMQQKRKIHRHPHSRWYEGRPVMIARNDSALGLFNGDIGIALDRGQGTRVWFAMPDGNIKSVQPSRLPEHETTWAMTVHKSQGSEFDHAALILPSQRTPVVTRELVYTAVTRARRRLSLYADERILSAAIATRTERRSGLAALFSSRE
T1 sequence (P07648 whole entry): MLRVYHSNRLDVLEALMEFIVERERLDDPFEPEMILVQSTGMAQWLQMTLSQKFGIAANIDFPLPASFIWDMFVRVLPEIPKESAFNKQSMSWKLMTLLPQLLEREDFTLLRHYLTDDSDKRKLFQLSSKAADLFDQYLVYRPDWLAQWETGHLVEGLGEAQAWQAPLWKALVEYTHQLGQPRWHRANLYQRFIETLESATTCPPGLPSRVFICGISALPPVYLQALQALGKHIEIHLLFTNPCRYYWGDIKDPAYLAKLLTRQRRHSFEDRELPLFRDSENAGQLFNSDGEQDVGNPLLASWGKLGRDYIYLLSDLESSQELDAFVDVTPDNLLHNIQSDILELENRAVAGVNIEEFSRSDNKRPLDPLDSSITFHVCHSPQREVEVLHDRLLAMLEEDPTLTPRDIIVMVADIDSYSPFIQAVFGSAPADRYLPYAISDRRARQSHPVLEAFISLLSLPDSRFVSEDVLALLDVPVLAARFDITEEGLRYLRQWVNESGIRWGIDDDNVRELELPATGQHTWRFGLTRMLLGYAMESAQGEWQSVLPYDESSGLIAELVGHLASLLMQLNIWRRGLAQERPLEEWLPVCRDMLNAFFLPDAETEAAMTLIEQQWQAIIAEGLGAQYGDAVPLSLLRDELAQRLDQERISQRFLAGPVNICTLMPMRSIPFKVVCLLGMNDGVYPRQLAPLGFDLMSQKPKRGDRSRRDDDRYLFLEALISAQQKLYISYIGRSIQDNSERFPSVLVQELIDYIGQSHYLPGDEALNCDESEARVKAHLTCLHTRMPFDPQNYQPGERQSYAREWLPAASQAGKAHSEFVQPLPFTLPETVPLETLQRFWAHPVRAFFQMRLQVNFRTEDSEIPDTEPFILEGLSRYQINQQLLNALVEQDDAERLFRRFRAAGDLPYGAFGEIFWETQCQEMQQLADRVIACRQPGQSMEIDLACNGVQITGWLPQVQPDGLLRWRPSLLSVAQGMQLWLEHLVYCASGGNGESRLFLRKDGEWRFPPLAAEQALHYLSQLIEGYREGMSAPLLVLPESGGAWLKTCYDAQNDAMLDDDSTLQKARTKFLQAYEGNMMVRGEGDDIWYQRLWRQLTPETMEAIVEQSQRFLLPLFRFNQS
T1 sequence (P08394 whole entry): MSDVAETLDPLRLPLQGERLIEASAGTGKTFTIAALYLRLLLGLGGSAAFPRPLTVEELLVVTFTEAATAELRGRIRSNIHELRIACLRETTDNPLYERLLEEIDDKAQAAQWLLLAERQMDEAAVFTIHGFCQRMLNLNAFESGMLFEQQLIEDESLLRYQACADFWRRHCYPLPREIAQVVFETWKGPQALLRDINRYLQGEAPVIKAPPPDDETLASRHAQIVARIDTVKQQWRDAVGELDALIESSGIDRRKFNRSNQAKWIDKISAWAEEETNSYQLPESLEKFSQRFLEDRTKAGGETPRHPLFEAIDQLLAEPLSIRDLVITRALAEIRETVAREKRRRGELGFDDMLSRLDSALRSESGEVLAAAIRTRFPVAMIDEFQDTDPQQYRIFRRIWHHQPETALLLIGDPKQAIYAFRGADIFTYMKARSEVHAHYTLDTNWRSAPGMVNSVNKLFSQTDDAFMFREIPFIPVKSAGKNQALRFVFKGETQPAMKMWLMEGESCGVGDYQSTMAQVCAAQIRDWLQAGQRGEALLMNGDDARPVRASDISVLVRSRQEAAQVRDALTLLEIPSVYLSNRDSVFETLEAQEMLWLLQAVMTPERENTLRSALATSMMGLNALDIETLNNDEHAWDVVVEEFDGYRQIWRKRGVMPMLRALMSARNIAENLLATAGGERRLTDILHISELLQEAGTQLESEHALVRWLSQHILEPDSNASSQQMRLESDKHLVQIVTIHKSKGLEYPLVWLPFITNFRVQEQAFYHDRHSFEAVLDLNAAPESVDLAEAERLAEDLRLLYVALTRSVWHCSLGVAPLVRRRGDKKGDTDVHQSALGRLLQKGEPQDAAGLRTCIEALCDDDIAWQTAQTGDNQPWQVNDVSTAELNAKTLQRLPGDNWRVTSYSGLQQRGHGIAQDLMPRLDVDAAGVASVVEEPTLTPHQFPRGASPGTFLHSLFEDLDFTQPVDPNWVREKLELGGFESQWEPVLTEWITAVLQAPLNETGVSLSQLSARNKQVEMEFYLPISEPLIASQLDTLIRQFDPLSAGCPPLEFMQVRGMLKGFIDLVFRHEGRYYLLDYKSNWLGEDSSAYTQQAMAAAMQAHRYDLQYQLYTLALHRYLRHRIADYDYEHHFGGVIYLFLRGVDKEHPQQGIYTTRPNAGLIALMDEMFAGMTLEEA

HEK293 [8] = assay: cells; type: functional, cell-based; conditions: Homo sapiens
HEK293 [9] = assay: NOD1 signaling inhibitors, primary screen, cell-based, luminescence, uHTS (AID 1578); type: functional; conditions: Homo sapiens
HEK293 [10] = assay: cells; type: functional, cell-based; conditions: Homo sapiens; remark: listed apart in the source
[11] = target: T2, RNA-binding protein pos-1 (Caenorhabditis elegans, UniProt G5EF15); assay: inhibitors of POS-1/mex-3 RNA binding, dose response, biochemical, fluorescence polarization (AID 1964);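 also: purified POS-1 fused to maltose binding protein made in E. coli; potency of compounds blocking POS-1 binding to fluorescent RNA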
T2 sequence (G5EF15 whole entry): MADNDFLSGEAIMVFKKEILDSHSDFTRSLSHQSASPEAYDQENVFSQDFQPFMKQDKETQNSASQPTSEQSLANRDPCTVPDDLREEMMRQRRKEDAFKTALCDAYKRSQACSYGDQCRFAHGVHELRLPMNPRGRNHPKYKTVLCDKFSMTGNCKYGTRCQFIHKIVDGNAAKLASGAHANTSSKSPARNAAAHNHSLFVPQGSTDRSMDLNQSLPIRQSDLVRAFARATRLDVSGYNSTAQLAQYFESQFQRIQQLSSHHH

HEK293 [12] = assay: cells; type: functional, cell-based; conditions: Homo sapiens; remark: listed apart in the source
HEK293 [13] = assay: NOD2 signaling inhibitors in MDP-stimulated cells, cell-based, uHTS, luminescence (AID 2001); type: functional; conditions: Homo sapiens
[14] = target: Nucleotide-binding oligomerization domain-containing protein 2 (Homo sapiens, UniProt Q9HC29); assay: NOD2 signaling inhibitors, cell-based, luminescence, uHTS, HEK293 (AID 1566); type: functional
Cytochrome P450 3A4 = Cytochrome P450 3A4 (Homo sapiens, UniProt P08684);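 also: CYP3A4 tested as one member of a cytochrome P450 panel screen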
Nonstructural protein 1 = Nonstructural protein 1 (Influenza A virus, UniProt Q194T2); type: functional, Influenza A virus (A/California/07/2009(H1N1))
HEK293 [15] = assay: cells; conditions: Homo sapiens
[16] = Luminescence Cell-Based Dose Retest to Confirm Inhibitors of Cancer Stem Cells. [Related pubchem assays (depositor defined):AID2717, AID2721]; type: functional; conditions: Homo sapiens
HEK293 [17] = assay: cells; conditions: Homo sapiens; remark: listed apart in the source
Cytochrome P450 2C19 = Cytochrome P450 2C19 (Homo sapiens, UniProt P33261); assay: Cytochrome panel assay with activity outcomes. Panel member name: p450-cyp2c19 Compounds with AC50 equal or less than 10 uM are considered active; type: functional; conditions: read-out: AC50
Cytochrome P450 2C9 = Cytochrome P450 2C9 (Homo sapiens, UniProt P11712)
[18] = C. albicans growth with fluconazole, confirmation, fluorescence, retest (AID 2467); type: functional, cell-based
[19] = NIH-3T3 fibroblast cytotoxicity, dose response, cytotoxicity control, cell-based, fluorescence, Alamar Blue, secondary assay (AID 2327); type: functional;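 also: NIH-3T3 mouse fibroblasts cultured with fluconazole at 8 µg/mL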

Sequence of Cytochrome P450 3A4 (P08684 whole entry): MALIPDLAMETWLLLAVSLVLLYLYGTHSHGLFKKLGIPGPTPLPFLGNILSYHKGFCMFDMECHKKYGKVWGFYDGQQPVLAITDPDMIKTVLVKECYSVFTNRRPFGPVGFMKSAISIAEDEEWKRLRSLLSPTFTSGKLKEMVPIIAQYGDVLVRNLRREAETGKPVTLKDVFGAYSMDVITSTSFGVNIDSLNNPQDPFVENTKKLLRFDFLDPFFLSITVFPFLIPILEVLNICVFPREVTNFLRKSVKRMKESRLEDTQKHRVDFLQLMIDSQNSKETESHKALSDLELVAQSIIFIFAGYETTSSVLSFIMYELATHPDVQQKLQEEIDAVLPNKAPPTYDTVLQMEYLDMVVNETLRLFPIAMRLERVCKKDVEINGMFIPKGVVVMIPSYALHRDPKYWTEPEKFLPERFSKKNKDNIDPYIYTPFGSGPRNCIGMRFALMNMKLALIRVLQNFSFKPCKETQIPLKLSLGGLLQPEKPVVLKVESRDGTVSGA
Sequence of Beta Lactamase (Q932Y6 whole entry): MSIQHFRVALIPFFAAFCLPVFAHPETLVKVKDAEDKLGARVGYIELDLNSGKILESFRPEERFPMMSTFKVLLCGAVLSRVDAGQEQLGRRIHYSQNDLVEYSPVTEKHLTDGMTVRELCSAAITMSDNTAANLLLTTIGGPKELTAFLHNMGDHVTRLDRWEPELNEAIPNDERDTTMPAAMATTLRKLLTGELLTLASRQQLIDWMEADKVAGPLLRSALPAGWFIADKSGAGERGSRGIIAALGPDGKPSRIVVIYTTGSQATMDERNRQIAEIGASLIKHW
Sequence of Nonstructural protein 1 (Q194T2 whole entry): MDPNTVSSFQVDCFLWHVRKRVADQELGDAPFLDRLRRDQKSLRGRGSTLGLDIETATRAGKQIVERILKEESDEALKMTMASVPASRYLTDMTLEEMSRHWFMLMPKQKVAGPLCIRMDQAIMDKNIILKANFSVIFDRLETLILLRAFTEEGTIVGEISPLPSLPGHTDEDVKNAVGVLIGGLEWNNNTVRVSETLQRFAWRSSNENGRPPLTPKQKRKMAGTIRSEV
Sequence of Cytochrome P450 2C9 (P11712 whole entry): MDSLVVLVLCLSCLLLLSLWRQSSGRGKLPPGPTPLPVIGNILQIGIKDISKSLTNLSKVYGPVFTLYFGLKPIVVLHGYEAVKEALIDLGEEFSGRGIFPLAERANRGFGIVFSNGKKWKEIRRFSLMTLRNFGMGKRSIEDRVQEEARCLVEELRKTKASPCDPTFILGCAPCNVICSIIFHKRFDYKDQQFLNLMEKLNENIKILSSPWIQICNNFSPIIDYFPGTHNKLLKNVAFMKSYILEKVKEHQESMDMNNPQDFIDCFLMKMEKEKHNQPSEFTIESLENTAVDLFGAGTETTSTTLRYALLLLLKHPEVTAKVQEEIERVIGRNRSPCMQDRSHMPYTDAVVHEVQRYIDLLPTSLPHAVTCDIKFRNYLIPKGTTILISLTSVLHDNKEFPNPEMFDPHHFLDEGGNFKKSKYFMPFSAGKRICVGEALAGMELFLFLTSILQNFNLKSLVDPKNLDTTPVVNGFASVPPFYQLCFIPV
Sequence of Nucleotide-binding oligomerization domain-containing protein 2 (Q9HC29 whole entry, the tested form may be a part): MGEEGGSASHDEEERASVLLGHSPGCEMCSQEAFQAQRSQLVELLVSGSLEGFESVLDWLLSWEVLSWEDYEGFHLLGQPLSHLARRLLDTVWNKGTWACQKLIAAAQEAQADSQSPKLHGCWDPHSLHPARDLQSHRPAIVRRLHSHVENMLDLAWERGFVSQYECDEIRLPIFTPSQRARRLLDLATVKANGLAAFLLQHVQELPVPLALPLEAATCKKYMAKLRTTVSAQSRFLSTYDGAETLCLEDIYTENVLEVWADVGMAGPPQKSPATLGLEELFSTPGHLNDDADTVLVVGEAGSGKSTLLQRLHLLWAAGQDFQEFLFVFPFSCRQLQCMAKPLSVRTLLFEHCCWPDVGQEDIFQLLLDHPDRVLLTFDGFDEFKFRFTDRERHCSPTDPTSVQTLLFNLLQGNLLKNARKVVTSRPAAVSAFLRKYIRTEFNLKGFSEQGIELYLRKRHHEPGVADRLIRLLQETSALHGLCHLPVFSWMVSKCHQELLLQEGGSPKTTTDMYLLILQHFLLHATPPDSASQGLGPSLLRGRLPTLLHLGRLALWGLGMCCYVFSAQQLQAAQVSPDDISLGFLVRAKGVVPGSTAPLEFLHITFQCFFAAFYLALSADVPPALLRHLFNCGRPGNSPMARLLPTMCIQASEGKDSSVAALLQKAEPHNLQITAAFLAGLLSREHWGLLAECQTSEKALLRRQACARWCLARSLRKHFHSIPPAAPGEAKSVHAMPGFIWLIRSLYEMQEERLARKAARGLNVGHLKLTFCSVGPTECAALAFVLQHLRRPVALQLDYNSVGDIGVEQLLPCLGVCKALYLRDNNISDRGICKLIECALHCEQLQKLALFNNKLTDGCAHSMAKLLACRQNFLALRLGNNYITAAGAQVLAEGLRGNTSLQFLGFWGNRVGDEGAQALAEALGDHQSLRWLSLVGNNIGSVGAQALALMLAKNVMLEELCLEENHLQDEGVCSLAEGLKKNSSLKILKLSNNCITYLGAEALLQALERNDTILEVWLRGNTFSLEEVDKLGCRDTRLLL
Sequence of Cytochrome P450 2C19 (P33261 whole entry): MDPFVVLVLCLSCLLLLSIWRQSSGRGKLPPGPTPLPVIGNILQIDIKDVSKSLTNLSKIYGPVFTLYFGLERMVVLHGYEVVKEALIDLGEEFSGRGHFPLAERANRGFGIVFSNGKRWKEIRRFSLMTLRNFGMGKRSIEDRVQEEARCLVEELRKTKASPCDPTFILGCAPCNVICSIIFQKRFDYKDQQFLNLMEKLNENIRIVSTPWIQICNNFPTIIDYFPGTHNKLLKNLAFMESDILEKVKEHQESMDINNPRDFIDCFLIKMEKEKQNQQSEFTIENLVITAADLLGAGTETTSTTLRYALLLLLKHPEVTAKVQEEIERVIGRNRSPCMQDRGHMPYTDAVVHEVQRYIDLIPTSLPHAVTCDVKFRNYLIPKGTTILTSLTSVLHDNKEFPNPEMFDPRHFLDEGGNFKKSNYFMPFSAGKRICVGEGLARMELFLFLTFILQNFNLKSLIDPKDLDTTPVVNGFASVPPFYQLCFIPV

## Cn1c2ccccc2c(=O)c2ccc(C#Cc3ccc(N)cc3)cc21
Beta Lactamase
  IC50: 5.26 µM (active)
[1]
  EC50: 1.92 µM (active)
[2]
  CC50: > 50 µM (active)
CHO
  IC50: > 49.8 µM (inactive)
Streptococcus
  EC50: 2.12 µM (active)

## CCCn1c(NC(=O)c2ccc([N+](=O)[O-])o2)nc2ccccc21
cells
  IC50: 1.51 µM (active)
[3]
  CC50: 17.1 µM (active)
[4]
  IC50: > 118 µM (inactive)
[5]
  EC50: 0.128 µM (active)
[6]
  CC50: 13.3 µM (active)
[7]
  EC50: > 30 µM (not active)
Exodeoxyribonuclease V
  IC50: > 118 µM (inactive)

## CCOc1cc(/C=C2\C(=N)N3N=C(S(C)(=O)=O)SC3=NC2=O)ccc1OCCOc1cccc(OC)c1
HEK293 [8]
  IC50: > 20 µM (inactive)
HEK293 [9]
  EC50: > 20 µM (inactive)
HEK293 [10]
  IC50: > 20 µM (inactive)
[11]
  EC50: > 300 µM (not active)
HEK293 [12]
  IC50: > 20 µM (inactive)
HEK293 [13]
  IC50: > 20 µM (inactive)
[14]
  EC50: 14.5 µM (active)

## O=C(c1cccc(F)c1)N1CCC2(CC1)CN(c1ncccn1)C2
Cytochrome P450 3A4
  AC50: inconclusive

## CN(C)c1ccc(N=Nc2ccccc2C(=O)OCC(=O)NC2CCCC2)cc1
Nonstructural protein 1
  IC50: 20.4 µM (active)

## Cc1ccsc1/C=C/c1ccc2cccc(O)c2n1
HEK293 [15]
  EC50: > 59.7 µM (inactive)
[16]
  AC50: 6.83 µM (active)
HEK293 [17]
  EC50: > 59.7 µM (inactive)

## O=C(Cc1ccccc1)Nc1nc(=O)c2ccccc2s1
Cytochrome P450 2C19
  AC50: 2.82 µM (inconclusive)
Cytochrome P450 2C9
  AC50: 3.55 µM (inconclusive)
Cytochrome P450 3A4
  AC50: inconclusive

## COc1ccccc1-c1ccc2c(c1)C(C)(Cc1cccc(C#N)c1)C(=O)N2 (configuration not stated)
HEK293 [15]
  EC50: > 59.6 µM (inactive)
HEK293 [17]
  EC50: > 59.6 µM (inactive)

## COc1ccc(CN2CCC2(C)C(=O)Nc2cccc(NS(C)(=O)=O)c2)c2ccccc12 (configuration not stated)
HEK293 [15]
  EC50: > 59.7 µM (inactive)
HEK293 [17]
  EC50: > 59.7 µM (inactive)

## Cc1cccc(/C=N/NC(=O)c2cccc([N+](=O)[O-])c2)n1
HEK293 [15]
  EC50: > 59.6 µM (inactive)
HEK293 [17]
  EC50: > 59.6 µM (inactive)

## C/C(=N\Nc1ccc([N+](=O)[O-])cc1)c1ccc2c(c1)OCO2
Beta Lactamase
  IC50: 12.5 µM (inactive)
CHO
  IC50: > 49.7 µM (inactive)
[18]
  EC50: > 38 µM (not active)
[19]
  EC50: > 150 µM (inactive)

Reference: ChEMBL document CHEMBL1201862, “PubChem BioAssay data set” (2004)
